Experimental findings from patent US20230355647A1, “Marker for determining anti-cancer effects of mitochondrial oxidative phosphorylation pathway inhibitor” (NANJING SHIJIANG MEDICINE TECHNOLOGY CO., LTD, priority 2020, published 2023) are described below.

Assay [1] concerns G-401. Briefly: Cell viability (CellTiter-Glo), G-401. The class given is cell-based. The note with it: Homo sapiens; G-401 cell line, 3-4 days of culture. The procedure:
(§1) Cell viability was detected using the Promega CellTiter-Glo kit, the kit reflected cell viability by directly measuring intracellular ATP content. The inhibitory effect (IC50 value) of Gboxin, a mitochondrial oxidative phosphorylation pathway inhibitor, on different tumor cell lines was tested in the Example. The name, source, and culture condition of each tumor cell line were as follows: Cell line G-401 (ATCC, No. CRL-1441) was cultured in 10% fetal bovine serum-containing McCoy's 5a medium (+P/S). […] Cell viability was detected using the Promega CellTiter-Glo kit, the kit reflected cell viability by directly measuring intracellular ATP content.
In general terms: ATP-based viability assays read luminescence as a measure of living cells.

Assay [2] deals with HCC1806. Briefly: Cell viability (CellTiter-Glo), HCC1806. The note with it: Homo sapiens; HCC1806 cell line, 3-4 days of culture. The class given is cell-based. As for the experimental part: (§2) Cell viability was detected using the Promega CellTiter-Glo kit, the kit reflected cell viability by directly measuring intracellular ATP content. The inhibitory effect (IC50 value) of Gboxin, a mitochondrial oxidative phosphorylation pathway inhibitor, on different tumor cell lines was tested in the Example. The name, source, and culture condition of each tumor cell line were as follows:
Cell line HCC1806 (ATCC, No. CRL-2335) was cultured in 10% fetal bovine serum-containing RPMI1640 medium (+P/S).
(§3) The above tumor cells were cultured in the relevant medium (+P/S), and incubated for 3 h, then the gradient diluted Gboxin was added, and IC50 (50% inhibiting concentration) was measured after 3-4 days of culture.

For assay [3], the system named is A-375. Briefly: Cell viability (CellTiter-Glo), A-375. The class given is cell-based. The note with it: Homo sapiens; A-375 cell line, 3-4 days of culture. As for the experimental part: as §2
Cell line A-375 (ATCC, No. CRL-1619) was cultured in 10% fetal bovine serum-containing DMEM medium (+P/S).
as §3

The subject of assay [4] is D283 Med. Briefly: Cell viability (CellTiter-Glo), D283 Med. Conditions: Homo sapiens; D283 Med cell line, 3-4 days of culture. The class given is cell-based. The procedure:
as §2
Cell line D283 Med (ATCC, No. HTB-185) was cultured in 10% fetal bovine serum-containing EMEM medium (+P/S).
as §3

Assay [5] has as its system SU.86.86. In words: Cell viability (CellTiter-Glo), SU.86.86. The class given is cell-based. The note with it: Homo sapiens; SU.86.86 cell line, 3-4 days of culture. As for the experimental part:
as §2
Cell line SU.86.86 (ATCC, No. CRL-1837) was cultured in 10% fetal bovine serum-containing RPMI1640 medium (+P/S).
as §3

Assay [6] has as its system H9. In words: Cell viability (CellTiter-Glo), H9. The class given is cell-based. The note with it: Homo sapiens; H9 cell line, 3-4 days of culture. As for the experimental part: as §2
Cell line H9 (ATCC, No. HTB-176) was cultured in 10% fetal bovine serum-containing RPMI1640 medium (+P/S).
as §3

Assay [7] relates to mTOR pathway (p-S6). Briefly: Western Blot of p-S6 protein in tumor cells after inhibitor treatment. The class given is cell-based, human. The note with it: 1 μM or 3 μM Gboxin, 1 μM Oligomycin A, 12 h; for activity of mTOR pathway (p-S6): FIG. 3; for content of p-S6 protein (activity of mTOR pathway): FIG. 2. The procedure:
The inhibition of mitochondrial oxidative phosphorylation pathway could cause the activation of ATF4 stress pathway and the decrease of mTOR pathway activity, the activity of the mTOR pathway was reflected by the expression level of phosphorylated ribosomal protein S6 (ie, p-S6).
The tumor cells NCI-H82, G-401 and WSU-DLCL2 were cultured in the relevant 10% FBS-containing medium (+p/s), and incubated overnight, then 1 μM Gboxin, 3 μM Gboxin or 1 μM Oligomycin A as shown in FIG. 2 was added. After 12 h of incubation, the content of ATF4 and p-S6 protein was detected using Western Blot, the experiment result was shown in FIG. 2.
The cell lines SF126, CFPAC-1 and 786-O were cultured in the relevant 10% FBS-containing medium (+p/s), and incubated overnight, then 1 μM Gboxin, 3 μM Gboxin or 1 μM Oligomycin A as shown in FIG. 3 was added. After 12 h of incubation, the content of ATF4 and p-S6 protein was detected using Western Blot, the experiment result was shown in FIG. 3.
(In general: A western blot detects proteins with antibodies after separation by electrophoresis.)

In assay [8] the test system is OCI-AML-3. In words: Cell viability (CellTiter-Glo), OCI-AML-3. The class given is cell-based. Conditions: Homo sapiens; OCI-AML-3 cell line, 3-4 days of culture. The procedure: as §2
Cell line OCI-AML-3 (DSMZ, No. ACC-582) was cultured in 20% fetal bovine serum-containing RPMI1640 medium (+P/S).
as §3

Assay [9] relates to HCC15. In words: Cell viability (CellTiter-Glo), HCC15. The class given is cell-based. Conditions: HCC15 cell line, 3-4 days of culture. The procedure:
as §2
Cell line HCC15 (KCLB, No. 70015) was cultured in 10% fetal bovine serum-containing RPMI1640 medium (+P/S).
as §3

Assay [10] concerns OCI-AML-5. Briefly: Cell viability (CellTiter-Glo), OCI-AML-5. The class given is cell-based. The note with it: Homo sapiens; OCI-AML-5 cell line, 3-4 days of culture. The procedure:
as §2
Cell line OCI-AML-5 (DSMZ, No. ACC-247) was cultured in alpha-MEM medium containing 20% fetal bovine serum and 10% volume fraction of 5637 cell line adjusted medium (+P/S).
as §3

Assay [11] concerns NCI-H82. In words: Cell viability (CellTiter-Glo), NCI-H82. The class given is cell-based. Conditions: Homo sapiens; NCI-H82 cell line, 3-4 days of culture. As for the experimental part: as §1, with “NCI-H82” for “G-401”, “HTB-175)” for “CRL-1441)”, “RPMI1640” for “McCoy's 5a”
The subject of assay [12] is CCRF-CEM. In words: Cell viability (CellTiter-Glo), CCRF-CEM. The class given is cell-based. Conditions: Homo sapiens; CCRF-CEM cell line, 3-4 days of culture. The procedure:
as §2
Cell line CCRF-CEM (ATCC, No. CCL-119) was cultured in 10% fetal bovine serum-containing RPMI1640 medium (+P/S).
as §3

For assay [13], the system named is 769-P. Briefly: Cell viability (CellTiter-Glo), 769-P. The class given is cell-based. The note with it: Homo sapiens; 769-P cell line, 3-4 days of culture. As for the experimental part: as §2
Cell line 769-P (ATCC, No. CRL-1933) was cultured in 10% fetal bovine serum-containing RPMI1640 medium (+P/S).
as §3

Assay [14] relates to COLO 320HSR. Briefly: Cell viability (CellTiter-Glo), COLO 320HSR. Conditions: Homo sapiens; COLO 320HSR cell line, 3-4 days of culture. The class given is cell-based. The procedure:
as §2
Cell line COLO 320HSR (ATCC, No. CCL-220.1) was cultured in 10% fetal bovine serum-containing RPMI1640 medium (+P/S).
as §3

In the case of `CCc1n(CC(=O)O[C@@H]2C[C@H](C)CC[C@H]2C(C)C)c2ccccc2[n+]1C.[Cl-]` [Gboxin], the IC50 in assay [1] came out at 777 nM; in [2], 3180 nM; in assay [3], 4650 nM; in assay [4], 4810 nM; in assay [5], 13700 nM; in assay [6] it was 3340 nM. The IC50 in assay [8] is 1460 nM; in [9] it was 2260 nM; in assay [10] it was 2740 nM; in assay [11], 398 nM; in assay [12], 2590 nM; in assay [13], above 30000 nM. In assay [14], this molecule registered a half-inhibitory concentration (IC50) above 30000 nM. Also, the “activity of mTOR pathway (p-S6)” value in assay [7] (786-O cells), in assay [7] (CFPAC-1 cells) and in [7] (SF126 cells) was “no significant changes” throughout. For the same molecule, the “content of p-S6 protein (activity of mTOR pathway)” value in assay [7] (G-401 cells), in assay [7] (NCI-H82 cells) and in assay [7] (WSU-DLCL2 cells) was “decreased” in each case.

For orientation: IC50 means the point on the concentration scale where inhibition reaches its midpoint.
